# Data as given in ChEMBL document CHEMBL1149049, “Increased feline cerebral blood flow induced by dehydroevodiamine hydrochloride from Evodia rutaecarpa” (J Nat Prod, 1994).
# Active and inactive are the calls of the source. The rule behind the calls is not given here.
# Test system: Felis catus
# Experiment: Increase in cerebral blood flow in anesthetized cat suprasylvian gyrus at 0.3 mg/kg, iv
# Assay type: functional, organism-based
# Set-up: dose 0.3 mg/kg
structure (smiles),measurement,value
C[n+]1c2n(c(=O)c3ccccc31)CCc1c-2[nH]c2ccccc12,Activity,Active
